The values that follow come from patent US12291494B2, “Methods of treating fibrosis” (Nogra Pharma Limited, priority 2012, dated 2025).

The structures appear in SMILES notation.

For one assay, the system named is Male C57bl6 mice. As to the kind of experiment: CCl4-induced liver fibrosis: histology (Metavir score). It counts as in vivo. As for the experimental part: Liver fibrosis was induced in Male C57bl6 mice (Charles River, l'Arbresle, France) by injection of carbon tetrachloride (CCl4). The C57bl6 mice weighed 22-25 g and were maintained in laboratory conditions for 1 week before experiment. Animals were housed 5 per cage with food and water available ad libitum.
The effectiveness of compound 34 (specific ligand of PPARg) as compared to JWH-133 (anti-fibrogenic agent) was evaluated. Compound 34 was administered orally in combination with CCl4 injections for ca. 5 weeks. Compound 34 was dosed daily at 200 uL of a 30 mM solution. JWH-133 was administered daily via intraperitoneal injections at 3 mg/kg (dose volume=100 uL). The model of liver fibrosis is induced by chronic exposure to increased dosages of CCl4 for 5 weeks. The first week, mice received an intraperitoneal injection of CCl4, resuspended in olive oil, at the dosage of 80 μl/kg of mice body weight twice a week. At week 2, 3 injections of CCl4 at the dosage of 160 μl/kg were performed every two days. At week 3, 3 injections of CCl4 at the dosage of 240 μl/kg were performed every two days. At week 4, 3 injections of CCl4 at the dosage of 320 μl/kg were performed every two days. Mice were euthanized, at week 5, 3 days after the last CCl4 administration.
The formalin-fixed liver tissue was processed and 5 μm thick paraffin sections were stained with hematoxylin and eosin (H&E) and Picrosirius red staining (specific coloration for collagen in tissue sections) to evaluate the degree of fibrosis in the liver. Each section was analyzed blindly by 3 different experimenters for the quantification of the degree of fibrosis for each lobe of the liver (5) using the Metavir score (see FIG. 2A for Metavir Score chart). The photographs seen in FIG. 2B were obtained with a 20× objective.

Another assay deals with C57bl6 mice. The assay can be described thus: DSS intestinal fibrosis study: level of fibrosis by Picrosirius red staining. Type of assay: in vivo. Conditions: colon; DSS vehicle 2.27±0.12, control 1.12±0.07. As to the method:
Samples of colon obtained were promptly fixed with 10% buffered formalin in PBS (pH 7.4) for 3 h, dehydrated in graded ethanol and embedded in low-temperature-fusion paraffin. Formalin-fixed colonic tissue was processed and 5 μm thick paraffin sections were stained with Picrosirius red staining for histological analysis. Pictures were obtained with a ×20 objective. Each section was analyzed blindly by 3 different experimenters for the quantification of the degree of fibrosis using a score from 0 to 4.

The test system of a further assay is TGF-β1. As to the kind of experiment: DSS intestinal fibrosis study: Western blot of colon, TGF-β1. Type of assay: in vivo, mice. Conditions: whole colon, OD normalized with GAPDH, expressed as percentage of control groups; DSS 153.6 ± 26.25. As for the experimental part:
For the Western blot analysis, 0.5 cm of frozen colonic samples were homogenized in RIPA Buffer containing 50 mM Tris HCl pH 7.6, 150 mM NaCl, 1.5 mM MgCl2, 5 mM EDTA, 1% Triton-X and 10% Glycerol, supplemented with 100 mM Sodium Fluoride (NaF), 2 mM Sodium Orthovanadate (Na3VO4), 10 mM Sodium Pyrophosphate (NaPPi), 1 mM phenylmethanesulphone (PMSF) and a classical protease-inhibitor cocktail containing 10 μg/mL Leupeptin and Aprotinin.
For each sample, 30 μg of protein was separated by PAGE and electroblotted. Nitrocellulose membranes (100% pure) were incubated (according with a specific protocol for each antibody) with primary antibodies directed against CTGF, Collagen-I and GAPDH (purchased from Abcam, Cambridge, UK; 1:1000 for 2 h at RT), diluted in 5% non-fat milk in 0.1% TBS-t. […] Optical density of target bands was determined using a computer-assisted densitometer and the ImageJ public domain software (W. S., Rasband, ImageJ, U. S. National Institutes of Health, Bethesda, MD; http://rsb.info.nih.gov/ij/, 1997-2011). Tissue levels were expressed as units of Optical Density (OD) per quantity of total proteins, normalized with internal control GAPDH and the results were expressed as percentage of control groups.
For orientation: A western blot detects proteins with antibodies after separation by electrophoresis.

As for `COC(Cc1ccc(N)cc1)C(=O)O` (racemic) [Compound 34, (±)-2-methoxy-3-(4′-aminophenyl) propionic acid], the “decrease of the fibrotic score (adapted Metavir score) compared to untreated animals” value in the assay on Male C57bl6 mice (FIG. 3B) was determined as 12.5%. For the same compound, the “mean Metavir score (FIG. 3A)” value with Male C57bl6 mice (compound 34 30 mM 200 uL oral daily, JWH-133 3 mg/kg i.p. daily, CCl4 vehicle group 2.5±0.5) stood at 2.1±0.2. Further, in the assay on Male C57bl6 mice (result in words), the “degree of fibrosis (Metavir)” value was “decrease in the degree of fibrosis from severe to moderate fibrosis”. Also, in the assay on C57bl6 mice, the “level of fibrosis, score from 0 to 4 (Picrosirius red)” value stood at 1.625±0.15. Also, the “TGF-β1 (Western blot)” value in the assay with TGF-β1 was 130.5 ± 28.02.
